Where two headings read alike, the source gives them in different places.

For one assay, the system named is brown rice planthopper. Put plainly: Insecticidal test on brown rice planthopper. It is filed as in vivo. The following applies: 144 h. The procedure: A wettable powder prepared in accordance with Formulation Example 2 was diluted with water to a concentration of an active ingredient of 500 ppm. Rice sprouts were dipped in this solution and put in a plastic cup having a capacity of 60 mL. Ten third-instar larvae of brown rice planthopper were released in the cup, the cup was lidded and placed in a thermostatic chamber at 25° C. for 6 days, and the number of dead larvae were counted for calculation of the mortality by Equation 2. The test was carried out by one series system.

The subject of the next assay is two-spotted spider mites. In words: Miticidal test on two-spotted spider mites (seedling dip). The following applies: Glycine max, 312 h; 500 ppm active ingredient, soybean seedlings with imago mites dipped, 25° C., 13 days; read-out: protective value. Type of assay: in vivo, Tetranvchus urticae. The procedure:
A wettable powder prepared in accordance with Formulation Example 2 was diluted with water to a concentration of an active ingredient of 500 ppm. Soybean seedlings which had been inoculated with imago two-spotted spider mites were dipped in the solution and dried in air. The treated soybean seedlings were placed in a thermostatic chamber at 25° C. for 13 days, and the number of live mites were assessed for calculation of the protective value by Equation 1. The test was carried out by one series system.

A further assay concerns cotton aphid. Put plainly: Insecticidal test on cotton aphid (seedling dip). It is filed as in vivo. Particulars: Aphis gossypii, in Cucumis sativus, 72 h. The procedure:
A wettable powder prepared in accordance with Formulation Example 2 was diluted with water to a concentration of an active ingredient of 500 ppm. Cucumber seedlings which had been inoculated with larvae of cotton aphid were dipped in this solution and dried in air. The treated cucumber seedlings were placed in a thermostatic chamber at 25° C. for 3 days, and the live insects were counted for calculation of the mortality by Equation 2. The test was carried out by one series system.

A further assay concerns diamondback moth. Put plainly: Insecticidal test on diamondback moth. It is filed as in vivo. Particulars: Plutella xylostella, 144 h. As for the experimental part:
A wettable powder prepared in accordance with Formulation Example 2 was diluted with water to a concentration of an active ingredient of 500 ppm. Cabbage leaves were dipped in this solution and dried in air and then put in a plastic cup having a capacity of 60 mL. 10 second-instar larvae of diamondback moth were released in the cup and the cup was lidded. Then, the cup was placed in a thermostatic chamber at 25° C. for 6 days, and dead moths were counted for calculation of the mortality by Equation 2. The test was carried out by one series system.

For the molecule `Cc1cc(F)c(-n2nc(OCC(F)(F)C(F)(F)F)cc2NC(=O)C(F)(F)F)cc1SCC(F)(F)F` [1-29, 1-{2-fluoro-4-methyl-5-(2,2,2-trifluoroethylthio)phenyl}-3-(2,2,3,3,3-pentafluoropropoxy)-5-trifluoroacetylaminopyrazole], the mortality at 500 ppm with brown rice planthopper, in the assay on cotton aphid and in the assay on diamondback moth (in Brassica oleracea) was no less than 90% in each case. The pest or weed control at 500 ppm with two-spotted spider mites was no less than 90%.
Turning to `Cc1cc(F)c(-n2nc(OCC(F)(F)C(F)(F)F)c(F)c2N)cc1SCC(F)(F)F` [1-41, 5-amino-1-{2-fluoro-4-methyl-5-(2,2,2-trifluoroethylthio)phenyl}-4-fluoro-3-(2,2,3,3,3-pentafluoropropoxy)pyrazole], the mortality at 500 ppm with brown rice planthopper is no less than 90%; in the assay with diamondback moth (500 ppm active ingredient, cabbage leaves dipped, second-instar larvae, 25° C., 6 days, read-out: mortality), no less than 90%.
On to `Cc1cc(F)c(-n2nc(OCC(F)(F)C(F)(F)F)c(Cl)c2N)cc1SCC(F)(F)F` [1-43, 5-amino-4-chloro-1-{2-fluoro-4-methyl-5-(2,2,2-trifluoroethylthio)phenyl}-3-(2,2,3,3,3-pentafluoropropoxy)pyrazole], for which the mortality at 500 ppm with brown rice planthopper and in the assay with diamondback moth (in Brassica oleracea) was no less than 90% throughout. Further, the pest or weed control at 500 ppm with two-spotted spider mites was no less than 90%.
In the case of `Cc1cc(F)c(-n2nc(OCC(F)(F)C(F)(F)F)cc2C)cc1SCC(F)(F)F` [1-91, 1-{2-fluoro-4-methyl-5-(2,2,2-trifluoroethylthio)phenyl}-5-methyl-3-(2,2,3,3,3-pentafluoropropoxy)pyrazole], the mortality at 500 ppm in the assay on brown rice planthopper, with cotton aphid and in the assay on diamondback moth (in Brassica oleracea) was no less than 90% in each case. The pest or weed control at 500 ppm in the assay on two-spotted spider mites was no less than 90%.
`Cc1cc(F)c(-n2nc(OCC(F)(F)C(F)(F)F)cc2C#N)cc1SCC(F)(F)F` [1-133, 5-cyano-1-{2-fluoro-4-methyl-5-(2,2,2-trifluoroethylthio)phenyl}-3-(2,2,3,3,3-pentafluoropropoxy)pyrazole]: the mortality at 500 ppm with brown rice planthopper, in the assay on cotton aphid and with diamondback moth (in Brassica oleracea) was no less than 90% throughout. Besides, the pest or weed control at 500 ppm with two-spotted spider mites is no less than 90%.
As to `CNc1cc(OC(F)(F)C(F)C(F)(F)F)nn1-c1cc(SCC(F)(F)F)c(C)cc1F` (stereo not drawn) [1-186, 1-{2-fluoro-4-methyl-5-(2,2,2-trifluoroethylthio)phenyl}-3-(1,1,2,3,3,3-hexafluoropropoxy)-5-methylaminopyrazole], the mortality at 500 ppm with brown rice planthopper, in the assay on cotton aphid and with diamondback moth (in Brassica oleracea) was no less than 90% each time. Also, the pest or weed control at 500 ppm in the assay on two-spotted spider mites was no less than 90%.
Regarding `Cc1cc(F)c(-n2nc(OCC(F)(F)C(F)(F)F)cc2C=O)cc1SCC(F)(F)F` [1-199, 1-{2-fluoro-4-methyl-5-(2,2,2-trifluoroethylthio)phenyl}-5-formyl-3-(2,2,3,3,3-pentafluoropropoxy)pyrazole], the pest or weed control at 500 ppm in the assay with two-spotted spider mites is no less than 90%. Also, the mortality at 500 ppm in the assay on diamondback moth (in Brassica oleracea) was no less than 90%.
As to `Cc1cc(F)c(-n2nc(OCCC(F)(F)F)cc2C)cc1[S+]([O-])CC(F)(F)F` (stereo not drawn) [1-250, 1-{2-fluoro-4-methyl-5-(2,2,2-trifluoroethylsulfinyl)phenyl}-5-methyl-3-(3,3,3-trifluoropropoxy)pyrazole], the mortality at 500 ppm with brown rice planthopper and in the assay on cotton aphid was no less than 90% throughout. Moreover, the pest or weed control at 500 ppm in the assay with two-spotted spider mites is no less than 90%.
With `Cc1cc(F)c(-n2nc(OC(F)(F)C(F)C(F)(F)F)cc2Cl)cc1SCC(F)(F)F` (stereo not drawn) [1-253, 5-chloro-1-{2-fluoro-4-methyl-5-(2,2,2-trifluoroethylthio)phenyl}-3-(1,1,2,3,3,3-hexafluoropropoxy)pyrazole], the mortality at 500 ppm with brown rice planthopper and in the assay with cotton aphid was no less than 90% each time. In addition, the pest or weed control at 500 ppm with two-spotted spider mites was no less than 90%.
As for `Cc1cc(F)c(-n2nc(OC(F)(F)C(F)C(F)(F)F)cc2Cl)cc1[S+]([O-])CC(F)(F)F` (stereo not drawn) [1-254, 5-chloro 1-{2-fluoro-4-methyl-5-(2,2,2-trifluoroethylsulfinyl)phenyl}-3-(1,1,2,3,3,3-hexafluoropropoxy)pyrazole], the mortality at 500 ppm in the assay on brown rice planthopper and in the assay on cotton aphid was no less than 90% in each case. For the same molecule, in the assay on two-spotted spider mites, the pest or weed control at 500 ppm is no less than 90%.
Regarding `CNc1c(Cl)c(OC(F)(F)C(F)C(F)(F)F)nn1-c1cc(SCC(F)(F)F)c(C)cc1F` (stereo not drawn) [1-261, 4-chloro-1-{2-fluoro-4-methyl-5-(2,2,2-trifluoroethylthio)phenyl}-3-(1,1,2,3,3,3-hexafluoropropoxy)-5-methylaminopyrazole], the mortality at 500 ppm in the assay on brown rice planthopper and with diamondback moth (in Brassica oleracea) was no less than 90% in each case. Further, the pest or weed control at 500 ppm with two-spotted spider mites is no less than 90%.
On to `CNc1c(Cl)c(OC(F)(F)C(F)C(F)(F)F)nn1-c1cc([S+]([O-])CC(F)(F)F)c(C)cc1F` (stereo not drawn) [1-262, 4-chloro-1-{2-fluoro-4-methyl-5-(2,2,2-trifluoroethylsulfinyl)phenyl}-3-(1,1,2,3,3,3-hexafluoropropoxy)-5-methylaminopyrazole], for which the mortality at 500 ppm in the assay with brown rice planthopper and in the assay on diamondback moth (in Brassica oleracea) was no less than 90% each time. Moreover, in the assay with two-spotted spider mites, the pest or weed control at 500 ppm was no less than 90%.
Turning to `Cc1cc(F)c(-n2nc(OC(F)(F)C(F)C(F)(F)F)c(Cl)c2N)cc1SCC(F)(F)F` (stereo not drawn) [1-263, 5-amino-4-chloro-1-{2-fluoro-4-methyl-5-(2,2,2-trifluoroethylthio)phenyl}-3-(1,1,2,3,3,3-hexafluoropropoxy)pyrazole], the mortality at 500 ppm with brown rice planthopper and in the assay with diamondback moth (in Brassica oleracea) was no less than 90% in each case. Besides, in the assay with two-spotted spider mites, the pest or weed control at 500 ppm is no less than 90%.
Take `Cc1cc(F)c(-n2nc(OC(F)(F)C(F)C(F)(F)F)c(Cl)c2N)cc1[S+]([O-])CC(F)(F)F` (stereo not drawn) [1-264, 5-amino-4-chloro 1-{2-fluoro-4-methyl-5-(2,2,2-trifluoroethylsulfinyl)phenyl}-3-(1,1,2,3,3,3-hexafluoropropoxy)pyrazole]: the mortality at 500 ppm in the assay on brown rice planthopper and in the assay on diamondback moth (in Brassica oleracea) was no less than 90% each time. The pest or weed control at 500 ppm in the assay with two-spotted spider mites was no less than 90%.
As to `Cc1cc(F)c(-n2nc(OC(F)(F)C(F)OC(F)(F)F)c(Cl)c2Cl)cc1SCC(F)(F)F` (stereo not drawn) [1-291, 4,5-dichloro-1-{2-fluoro-4-methyl-5-(2,2,2-trifluoroethylthio)phenyl}-3-{1,1,2-trifluoro-2-(trifluoromethoxy)ethoxy}pyrazole], the mortality at 500 ppm with brown rice planthopper and with diamondback moth (in Brassica oleracea) was no less than 90% each time. Further, the pest or weed control at 500 ppm with two-spotted spider mites was no less than 90%.
`Cc1cc(F)c(-n2nc(OC(F)(F)C(F)OC(F)(F)F)c(Cl)c2Cl)cc1[S+]([O-])CC(F)(F)F` (stereo not drawn) [1-292, 4,5-dichloro-1-{2-fluoro-4-methyl-5-(2,2,2-trifluoroethylsulfinyl)phenyl}-3-{1,1,2-trifluoro-2-(trifluoromethoxy)ethoxy}pyrazole]: the mortality at 500 ppm in the assay with brown rice planthopper and with diamondback moth (in Brassica oleracea) was no less than 90% in each case. For the same molecule, the pest or weed control at 500 ppm in the assay with two-spotted spider mites is no less than 90%.
For the molecule `Cc1cc(F)c(-n2nc(OC(F)(F)C(F)OC(F)(F)F)cc2C#N)cc1SCC(F)(F)F` (stereo not drawn) [1-668, 5-cyano-1-{2-fluoro-4-methyl-5-(2,2,2-trifluoroethylthio)phenyl}-3-{1,1,2-trifluoro-2-(trifluoromethoxy)ethoxy}pyrazole], the mortality at 500 ppm in the assay with brown rice planthopper, with cotton aphid and with diamondback moth (in Brassica oleracea) was no less than 90% each time. Further, the pest or weed control at 500 ppm in the assay on two-spotted spider mites is no less than 90%.
Regarding `COc1cc(OC(F)(F)C(F)OC(F)(F)F)nn1-c1cc(SCC(F)(F)F)c(C)cc1F` (stereo not drawn) [1-794, 1-{2-fluoro-4-methyl-5-(2,2,2-trifluoroethylthio)phenyl}-5-methoxy-3-{1,1,2-trifluoro-2-(trifluoromethoxy)ethoxy}pyrazole], the mortality at 500 ppm with brown rice planthopper, with cotton aphid and in the assay with diamondback moth (in Brassica oleracea) was no less than 90% in each case. Also, the pest or weed control at 500 ppm in the assay with two-spotted spider mites is no less than 90%.
`Cc1cc(F)c(-n2nc(OC(F)(F)C(F)OC(F)(F)F)cc2C(F)F)cc1SCC(F)(F)F` (stereo not drawn) [1-1531, 5-difluoromethyl-1-{2-fluoro-4-methyl-5-(2,2,2-trifluoroethylthio)phenyl}-3-{1,1,2-trifluoro-2-(trifluoromethoxy)ethoxy}pyrazole]: the mortality at 500 ppm with brown rice planthopper, in the assay with cotton aphid and in the assay with diamondback moth (in Brassica oleracea) was no less than 90% each time. In the assay on two-spotted spider mites, the pest or weed control at 500 ppm was no less than 90%.
As for `Cc1cc(F)c(-n2nc(OC(F)(F)C(F)OC(F)(F)F)cc2CF)cc1[S+]([O-])CC(F)(F)F` (stereo not drawn) [1-1580, 1-{2-fluoro-4-methyl-5-(2,2,2-trifluoroethylsulfinyl)phenyl}-5-fluoromethyl-3-{1,1,2-trifluoro-2-(trifluoromethoxy)ethoxy}pyrazole], the mortality at 500 ppm in the assay on brown rice planthopper and in the assay on cotton aphid was no less than 90% each time. For the same molecule, the pest or weed control at 500 ppm with two-spotted spider mites is no less than 90%.
Regarding `Cc1cc(F)c(-n2ccc(C(F)(F)F)n2)cc1SCC(F)(F)F` [V-613, reference compound], in the assay on cotton aphid, the mortality at 500 ppm stood at 0%.

For the origin of these results see patent US8802713B2, “3-alkoxy-1-phenylpyrazole derivatives and pesticides” (Kumiai Chemical Industry Co., Ltd., priority 2007, dated 2014).
